The record followed here is article PMC8230565, “Bisavenathramide Analogues as Nrf2 Inductors and Neuroprotectors in In Vitro Models of Oxidative Stress and Hyperphosphorylation” (Antioxidants, 2021).

Broadly, the inhibition is the drop in the measured response relative to a control, in per cent. Broadly, the IC50 is the concentration at which inhibition is half-maximal.

One data set has as its system SH-SY5Y cells. As to the kind of experiment: Neuroprotection against okadaic acid in SH-SY5Y cells (MTT). It counts as cell-based. Conditions: for % neuroprotection against okadaic acid at 1 µM: Homo sapiens, SH-SY5Y, 18 h, 1 µM compound, okadaic acid 20 nM, read-out: % Neuroprotection ± SEM at 1 µM (okadaic acid). The procedure:
Neuroprotection studies against tau hyperphosphorylation exerted by okadaic acid (OA) were evaluated using the SH-SY5Y cell line as follows. […] After 18 h, cell viability was addressed by the MTT reduction method. MTT (5 mg/mL, 10 μL/well) was added and incubated for 2 h. Then, the medium was removed and the purple formazan crystals formed by viable cells were dissolved using 100 μL of DMSO. A FluoStar Optima spectrophotometer (BMG Labtech, Ortenberg, Baden-Württemberg, Germany) was used to measure the absorbance at 570 nm.
Okadaic acid is a potent inhibitor of protein phosphatase 2A (PP2A), thereby inducing tau hyperphosphorylation. For this reason, it can be employed as a model of neurodegenerative-disease-connected tau hyperphosphorylation, a well-known feature of Alzheimer’s disease, but present also in other NDDs, collectively known as tauopathies and characterized by the pathological aggregation of hyperphosphorylated tau in neurofibrillary tangles. […] Tau hyperphosphorylation is connected to oxidative stress, which activates p38 and deactivates calcineurin, a phosphatase involved in tau dephosphorylation by increasing RCAN1, its natural repressor [34, 35]. Indeed, hyperphosphorylation and oxidative stress have been proposed to generate a vicious circle that is critical to the advance of neurodegenerative tauopathies.

Data set [1] addresses AChE (Electrophorus electricus) (Electrophorus electricus, UniProt O42275). As to the kind of experiment: Acetylcholinesterase inhibition (Ellman's method). It counts as biochemical. The following applies: for inhibition at 10 µM: 10 μM compound, read-out: % Inhibition of EeAChE at 10 μM. On the procedure:
Ellman’s method was employed to determine the inhibitory capacity of the compounds against AChE (Electrophorus electricus). The compounds were studied at 10 μM concentration, at room temperature, using PBS (0.1 M, pH 8) as solvent. Transparent 48-well microplates (COSTAR 3548) were used and, in each one, a blank was included. The compounds were incubated with the enzyme (0.09 U/mL) and with DTNB (0.35 mM) for 10 min. Afterwards, the enzyme substrate acetylthiocholine (0.35 mM) was added to a final volume of 1 mL. The microplate was incubated at room temperature for 15 min. Then, the absorbance was measured at 420 nm using the microplate reader FluoStar Optima (BMG Labtech, Ortenberg, Baden-Württemberg, Germany). The enzymatic activity was calculated by subtracting the blank absorbance from the sample absorbance and dividing the result by the absorbance of the maximum activity subtracted from blank absorbance, and the result was multiplied by one hundred to give a percentage. The inhibitory activity was calculated by subtracting the enzymatic activity from one hundred. Selected compounds were assayed at 0.3, 1, 3, 10, and 30 μM concentrations to obtain inhibition curves. The results were plotted versus concentration to obtain IC50 values through sigmoidal non-lineal adjustment. All the experiments were performed at least in triplicate.
Bisavenanthramide B-6 and heliotropamide A have been identified as acetylcholinesterase inhibitors. This precedent, coupled with our interest in the potential characterization of our compounds as multitarget-directed ligands, led us to investigate them as inhibitors of this enzyme, an important anti-Alzheimer target.

Data set [2] relates to neuroblastoma SHSY5Y cells. Briefly: Cytotoxicity in SHSY5Y cells (MTT reduction). It counts as cell-based. Conditions: for LD50: MTT reduction. On the procedure: SH-SY5Y cells (ECACC 94030304, Porton Down, Salisbury, UK), from passages between 4 and 16 after defreezing, were maintained in a MEM/F12 containing […] nonessential amino acids and supplemented with 10% fetal bovine serum (FBS), glutamine 1 mM, 50 units/mL of penicillin, and 50 μg/mL of streptomycin (GIBCO, Madrid, Spain). Cells were harvested in a […] flask and incubated at 37 °C with wet atmosphere and 5% CO2, carrying out passages 1:4 twice a week. For neuroprotection experiments, cells were seeded in 96-well plates at a density of 60,000 cells/well. For the toxicity experiments, cells were treated with the compounds under assay before reaching confluence, in MEM/F12 with 1% FBS.
Due to their presumed electrophilicity, the neurotoxicity of our compounds was investigated by investigating their influence on cell viability in the neuroblastoma SHSY5Y cell line prior to other studies in cell cultures. […] It is relevant to note that, despite their reputation for toxicity, interest in covalent drugs has undergone a renaissance, and about 30% of the recently marketed drugs belong to this class.
(In general: Tetrazolium assays rely on reduction of a dye to a coloured formazan, in cell work by metabolically active cells.)

Data set [3] in a line: Ferric reducing antioxidant power (FRAP) assay. Also noted: key to FRAP TEAC: trolox equivalents (TEAC), relative to trolox. The following applies: for FRAP TEAC: 30 µM, relative to trolox; for FRAP nmol Fe2+ at 30 µM: 30 µM compound, n in brackets. The procedure:
A ferric reducing antioxidant power (FRAP) kit assay purchased from Sigma-Aldrich (Madrid, Spain) was employed for the experiments. The antioxidant solutions, FRAP assay buffer solution, FeCl3 solution, and FRAP probe solution were kept in ice during the preparation of the plate. A calibration standard curve was prepared by using the 2 mM ferrous standard solution provided in the FRAP kit assay. Appropriate aliquots of this solution were taken and diluted up to a 200 μL final volume with FRAP buffer. The final ferrous concentrations measured in the well were: 0, 20, 40, 60, 80, and 100 μM. Each concentration value was prepared and measured by triplicate. Stock solutions of compounds 3, as well as reference compounds trolox and ferulic acid, were freshly prepared in 95% ethanol at […]. Aliquots of 10 μL of compounds 3 and the reference compounds were mixed with 19 μL FeCl3 solution and 19 μL FRAP probe solution, and then completed to a final volume of 200 μL with FRAP assay buffer solution. The final concentration of antioxidants and references was 30 μM. Compounds 3, reference compounds, as well as the corresponding blank solutions (one for each compound to be assayed, avoiding the chromogenic FRAP probe), and positive control were thoroughly mixed in vortex for 1–2 min with the reaction chromogenic media, and then were incubated under darkness at 37 °C in the dry bath, and using the device for support well-plates. Each compound to be assayed and the reference antioxidant compounds were prepared and measured by triplicate. The absorbance values were measured at 594 nm after 5 min of reaction and, to assure complete reaction, the absorbance values after 60 min of incubation at 37 °C in the dry bath were also measured. The absorbance values of the sample antioxidant compounds were corrected by subtracting the corresponding absorbance values of the blanks, and then they were introduced in the calibration curve and the ferrous equivalents were determined. The reference antioxidants employed for this assay were trolox and ferulic acid, which were obtained from Sigma-Aldrich (Madrid, Spain). Ultrapure water was obtained from a Milli-Q Direct 8 system (Millipore, Molsheim, France).
In order to achieve a broader insight into the antioxidant profile of our compounds, we also examined them using a single electron transfer (SET)-based method, namely the ferric reducing antioxidant power (FRAP) assay, which measures the ability of an antioxidant to reduce the ferric ion in the TPTZ (2,4,6-tri(2-pyridyl)-1,3,5-triazine)-Fe(III) complex.

Entries after “also recorded” stand apart in the source; their conditions may differ.

AChE (Electrophorus electricus), sequence (O42275 24-633): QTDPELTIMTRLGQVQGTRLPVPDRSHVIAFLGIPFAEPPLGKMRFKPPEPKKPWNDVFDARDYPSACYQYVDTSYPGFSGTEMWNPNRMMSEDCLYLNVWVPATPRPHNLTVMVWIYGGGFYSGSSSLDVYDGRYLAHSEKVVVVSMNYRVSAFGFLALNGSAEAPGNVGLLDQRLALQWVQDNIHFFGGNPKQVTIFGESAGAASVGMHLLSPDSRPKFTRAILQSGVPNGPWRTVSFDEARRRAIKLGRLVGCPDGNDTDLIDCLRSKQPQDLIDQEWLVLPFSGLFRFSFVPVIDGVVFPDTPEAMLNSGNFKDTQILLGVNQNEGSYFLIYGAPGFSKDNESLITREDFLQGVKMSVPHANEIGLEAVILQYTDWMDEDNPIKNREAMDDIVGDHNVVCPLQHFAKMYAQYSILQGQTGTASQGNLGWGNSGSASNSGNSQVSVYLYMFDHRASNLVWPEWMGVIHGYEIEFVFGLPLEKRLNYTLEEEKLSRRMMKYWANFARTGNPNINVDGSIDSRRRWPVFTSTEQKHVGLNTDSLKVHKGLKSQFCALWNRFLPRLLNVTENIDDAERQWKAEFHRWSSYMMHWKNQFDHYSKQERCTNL

As to `COC(=O)C1=C(C)N(Cc2ccccc2)C(=O)/C1=C\c1ccccc1` [Compound 3a, Methyl (Z)-1-Benzyl-4-benzylidene-2-methyl-5-oxo-4,5-dihydro-1H-pyrrole-3-carboxylate], the % neuroprotection against okadaic acid at 1 µM in the data set with SH-SY5Y cells turned out to be 68 ± 22%. In addition, in data set [1], the inhibition at 10 µM turned out to be 27.4%. Also, in data set [2], the “toxicity assessment” value is recorded as “too toxic” and the LD50 worked out at 63.7 ± 12.8 µM. In addition, the “FRAP TEAC” value in data set [3] was 0.62.
Turning to `COC(=O)C1=C(C)N(Cc2ccccc2)C(=O)/C1=C\c1ccc(OC)cc1` [Compound 3b, Methyl (Z)-1-Benzyl-4-(4-methoxybenzylidene)-2-methyl-5-oxo-4,5-dihydro-1H-pyrrole-3-carboxylate], in the data set on SH-SY5Y cells, the % neuroprotection against okadaic acid at 1 µM stood at 54.1 ± 14.3%. The inhibition at 10 µM in data set [1] was 36.7%. Also, the IC50 in data set [1] (n in brackets, read-out: IC50 (EeAChE)) was 29.7 ± 3 µM. The same compound had an LD50 in data set [2] above 100 µM. Besides, in data set [3], the “FRAP nmol Fe2+ at 30 µM” value was 1.44 ± 0.02 (3) nmol Fe^2+ and the “FRAP TEAC” value is reported as 0.63.
With `COC(=O)C1=C(C)N(Cc2ccccc2)C(=O)/C1=C\c1ccc(Cl)cc1` [Compound 3c, Methyl (Z)-1-Benzyl-4-(4-chlorobenzylidene)-2-methyl-5-oxo-4,5-dihydro-1H-pyrrole-3-carboxylate], in the data set with SH-SY5Y cells, the % neuroprotection against okadaic acid at 1 µM was found to be 52.8 ± 9.96%. Further, the inhibition at 10 µM in data set [1] was found to be 33.5%. In data set [2], the “toxicity assessment” value is on record as “too toxic”. For the same compound, in data set [3], the “FRAP nmol Fe2+ at 30 µM” value is on record as 1.41 ± 0.03 (3) nmol Fe^2+ and the “FRAP TEAC” value is given as 0.62.
For the compound `COC(=O)C1=C(C)N(CCc2ccccc2)C(=O)/C1=C\c1ccc2c(c1)OCO2` [Compound 3d, Methyl (Z)-4-(Benzo[d](1,3)dioxol-5-ylmethylene)-2-methyl-5-oxo-1-phenethyl-4,5-dihydro-1H-pyrrole-3-carboxylate], in the data set with SH-SY5Y cells, the % neuroprotection against okadaic acid at 1 µM is 52.7 ± 17.2%. For the same compound, in data set [1], the inhibition at 10 µM stood at 25.2%. In data set [2], this compound came in with an LD50 above 100 µM. In addition, in data set [3], the “FRAP nmol Fe2+ at 30 µM” value is 1.41 ± 0.04 (3) nmol Fe^2+ and the “FRAP TEAC” value was found to be 0.62.
For `COC(=O)C1=C(C)N(CCc2ccccc2)C(=O)/C1=C\c1ccc(OC)cc1OC` [Compound 3e, Methyl (Z)-4-(2,4-Dimethoxybenzylidene)-2-methyl-5-oxo-1-phenethyl-4,5-dihydro-1H-pyrrole-3-carboxylate], in that order: 62.8 ± 8%, 24.3%, above 100 µM, 1.44 ± 0.01 (3) nmol Fe^2+ and 0.63.
As to `COC(=O)C1=C(C)N(CCc2ccccc2)C(=O)/C1=C\c1cc(OC)c(OC)cc1OC` [Compound 3f, Methyl (Z)-2-Methyl-5-oxo-1-phenethyl-4-(2,4,5-trimethoxybenzylidene)-4,5-dihydro-1H-pyrrole-3-carboxylate], in the data set with SH-SY5Y cells, the % neuroprotection against okadaic acid at 1 µM was found to be 48.3 ± 11%. Further, the inhibition at 10 µM in data set [1] was 29.3%. Moreover, the LD50 in data set [2] is above 100 µM. In addition, in data set [3], the “FRAP nmol Fe2+ at 30 µM” value is 1.42 ± 0.04 (3) nmol Fe^2+ and the “FRAP TEAC” value came to 0.62.
Consider `COC(=O)C1=C(C)N(CCc2ccccc2)C(=O)/C1=C\c1cc(OC)c(OC)c(OC)c1` [Compound 3g, Methyl (Z)-2-Methyl-5-oxo-1-phenethyl-4-(3,4,5-trimethoxybenzylidene)-4,5-dihydro-1H-pyrrole-3-carboxylate], for which the % neuroprotection against okadaic acid at 1 µM in the data set on SH-SY5Y cells worked out at 65.7 ± 29.1%. The inhibition at 10 µM in data set [1] is 11.6%. The LD50 in data set [2] is above 100 µM. Moreover, in data set [3], the “FRAP nmol Fe2+ at 30 µM” value was 1.36 ± 0.10 (3) nmol Fe^2+ and the “FRAP TEAC” value was found to be 0.60.
As for `COC(=O)C1=C(C)N(CCc2ccccc2)C(=O)/C1=C\c1ccc(OC)c(O)c1` [Compound 3h, Methyl (Z)-4-(3-Hydroxy-4-methoxybenzylidene)-2-methyl-5-oxo-1-phenethyl-4,5-dihydro-1H-pyrrole-3-carboxylate], the “level of neuroprotection compared with melatonin / in words (okadaic acid)” value in the data set on SH-SY5Y cells (1 µM) is “excellent neuroprotection”. For the same compound, in the data set on SH-SY5Y cells, the % neuroprotection against okadaic acid at 1 µM was 81.9 ± 28.5%. In addition, the inhibition at 10 µM in data set [1] stood at 24.2%. Also, the LD50 in data set [2] is above 100 µM. In data set [3], the “FRAP nmol Fe2+ at 30 µM” value is given as 1.63 ± 0.04 (3) nmol Fe^2+ and the “FRAP TEAC” value is 0.71.
For `COC(=O)C1=C(C)N(CCc2ccccc2)C(=O)/C1=C\c1ccc(O)c(O)c1` [Compound 3i, Methyl (Z)-4-(3,4-Dihydroxybenzylidene)-2-methyl-5-oxo-1-phenethyl-4,5-dihydro-1H-pyrrole-3-carboxylate], the “neuroprotective effect against okadaic acid by concentration” value with SH-SY5Y cells (0.01, 0.1, 1, 10 and 30 µM, OA 20 nM) is “concentration-dependent neuroprotective effect being statistically significant at 1 and 10 µM; also recorded: neuroprotection was lost at 30 µM”. In addition, the % neuroprotection against okadaic acid at 1 µM with SH-SY5Y cells came out at 60.9 ± 23.3%. Also, the inhibition at 10 µM in data set [1] was determined as 27.2%. Besides, in data set [2], the “toxicity assessment” value is “suitable toxicity profile” and the LD50 was found to be 92.8 ± 4.6 µM. Also, in data set [3], the “antioxidant activity in FRAP compared with references” value is “more active than ferulic acid and slightly more active than trolox”; the “FRAP nmol Fe2+ at 30 µM” value is 2.30 ± 0.08 (3) nmol Fe^2+; the “FRAP TEAC” value was 1.01.
Regarding `COC(=O)C1=C(C)N(CCc2ccccc2)C(=O)/C1=C\c1ccc(OCc2ccccc2F)c(OC)c1` [Compound 3j, Methyl (Z)-4-[4-((2-Fluorobenzyl)oxy)-3-methoxybenzylidene]-2-methyl-5-oxo-1-phenethyl-4,5-dihydro-1H-pyrrole-3-carboxylate], the % neuroprotection against okadaic acid at 1 µM in the data set on SH-SY5Y cells was 31.8 ± 15.2%. The inhibition at 10 µM in data set [1] amounted to 16%. This compound displayed an LD50 in data set [2] above 100 µM. In data set [3], the “FRAP nmol Fe2+ at 30 µM” value is 1.60 ± 0.04 (3) nmol Fe^2+ and the “FRAP TEAC” value is given as 0.70.
